IC50 and ID50 data for 10 compounds are collected here from ChEMBL document CHEMBL1121760, “Methotrexate analogues. 14. Synthesis of new gamma-substituted derivatives as dihydrofolate reductase inhibitors and potential anticancer agents” (1981).

One experiment has as its system L1210. Briefly: Growth inhibitory activity against L1210 mouse leukemia cell line. The following applies: read-out: ID50 (the source's name). Format: functional.
Experiment [1] has as its target Dihydrofolate reductase (Lactobacillus casei) (UniProt P00381). The note with it: Lacticaseibacillus casei.
Description: Compound was tested for inhibition of Lactobacillus casei dihydrofolate reductase using spectrophotometric assay at 340 nm
Experiment [2] shares this target. The note with it: Lacticaseibacillus casei. This is another data set of the same source.
Description: Compound was tested for inhibition of Lactobacillus casei dihydrofolate reductase using competitive [3H]MTX binding assay
Experiment [3] has as its target T1, Dihydrofolate reductase (Mus musculus) (UniProt P00375).
T1 sequence (whole entry): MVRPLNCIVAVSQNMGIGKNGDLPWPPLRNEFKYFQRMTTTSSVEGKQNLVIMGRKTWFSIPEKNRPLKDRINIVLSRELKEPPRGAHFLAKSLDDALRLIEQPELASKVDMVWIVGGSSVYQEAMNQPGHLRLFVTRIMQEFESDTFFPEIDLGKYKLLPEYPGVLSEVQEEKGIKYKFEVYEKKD
The note with it: L1210.
Description: Compound was tested for inhibition of L1210 dihydrofolate reductase by competitive [3H]MTX binding assay in L1210 mouse leukemia cell lines

The structures appear in SMILES notation.

Sequence of Dihydrofolate reductase (Lactobacillus casei) (P00381 whole entry): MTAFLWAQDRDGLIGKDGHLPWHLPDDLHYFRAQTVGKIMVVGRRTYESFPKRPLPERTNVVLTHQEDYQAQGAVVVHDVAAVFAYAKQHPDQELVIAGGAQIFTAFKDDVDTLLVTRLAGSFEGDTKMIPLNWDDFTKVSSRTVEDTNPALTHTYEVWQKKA

For the compound `CN(Cc1cnc2nc(N)nc(N)c2n1)c1ccc(C(=O)NC(CCC(=O)OC(C)(C)C)C(=O)O)cc1` (stereo not given), in the experiment with L1210, the IC50 was 20 nM. The figures for the ID50 in experiment [1], in experiment [2] and in experiment [3] were 25 nM, 12 nM and 2.9 nM, respectively.
On to `CN(Cc1cnc2nc(N)nc(N)c2n1)c1ccc(C(=O)N[C@@H](CCC(=O)O)C(=O)O)cc1` [METHOTREXATE], for which, in the experiment with L1210, the IC50 was found to be 10 nM.
On to `CCCCNC(=O)CCC(NC(=O)c1ccc(N(C)Cc2cnc3nc(N)nc(N)c3n2)cc1)C(=O)O` (stereo not given), for which, in the experiment on L1210, the IC50 stood at 90 nM. Also, the ID50 in experiment [1] worked out at 53 nM; in experiment [2], 36 nM; in experiment [3], 3.3 nM.
`CCCCNC(=O)CCC(NC(=O)c1ccc(N(C)Cc2cnc3nc(N)nc(N)c3n2)cc1)C(=O)OCc1ccccc1` (stereo not given): the ID50 in experiment [2] stood at 250 nM.
Regarding `CN(Cc1cnc2nc(N)nc(N)c2n1)c1ccc(C(=O)NC(CCC(=O)NCc2ccccc2)C(=O)O)cc1` (stereo not given), the IC50 in the experiment with L1210 was 30 nM.
As to `COC(=O)C(CCC(=O)OC(C)(C)C)NC(=O)c1ccc(N(C)Cc2cnc3nc(N)nc(N)c3n2)cc1` (stereo not given), the IC50 in the experiment on L1210 came out at 4900 nM. For the same compound, the results for the ID50 in experiment [1], in experiment [2] and in experiment [3] were 330 nM, 3900 nM and 11 nM, respectively.
With `CN(Cc1cnc2nc(N)nc(N)c2n1)c1ccc(C(=O)NC(CCC(=O)NN)C(=O)OC(C)(C)C)cc1` (stereo not given), in the experiment on L1210, the IC50 stood at 11000 nM. Also, the ID50 was 170 nM in experiment [1] and 2200 nM in experiment [2].
On to `CN(Cc1cnc2nc(N)nc(N)c2n1)c1ccc(C(=O)NC(CCC(=O)NN)C(=O)O)cc1` (stereo not given), for which, in the experiment on L1210, the IC50 worked out at 20 nM. In addition, the ID50 stood at 2.1 nM in experiment [1], 13 nM in experiment [2] and 12 nM in experiment [3].
For `COC(=O)CCC(NC(=O)c1ccc(N(C)Cc2cnc3nc(N)nc(N)c3n2)cc1)C(=O)OC(C)(C)C` (stereo not given), in that order: 9700 nM, 200 nM, 2200 nM and 19 nM.
The matching figures for `CN(Cc1cnc2nc(N)nc(N)c2n1)c1ccc(C(=O)NC(CCC(=O)O)C(=O)OC(C)(C)C)cc1` (stereo not given): 5200 nM, 36 nM, 210 nM and 35 nM.
